Source: ChEMBL document CHEMBL1141457, “N-methyl-D-aspartate antagonists and neuropathic pain: the search for relief” (2007)

Key:
[1] = species: Homo sapiens; assay: Reduction in post-surgical neuropathic pain intensity in cancer patient; format: functional; design: scale not given: the % may be the effect or the level left
[2] = species: Homo sapiens; assay: Reduction in pain intensity in diabetic neuropathy patient; format: functional; design: scale not given: the % may be the effect or the level left

| SMILES | Activity [1] | Activity [2] |
| --- | --- | --- |
| NC12CC3CC(CC(C3)C1)C2 [AMANTADINE] | 31% |  |
| COc1ccc2c(c1)[C@]13CCCC[C@@H]1[C@H](C2)N(C)CC3 [DEXTROMETHORPHAN] |  | 24% |
